Numbered stars: 1 amine (or outer) side, 2 acyl side, 3 side chain; on linkers, the order of the positions; unused ones are H or OH. Square brackets hold non-standard residues; d marks the D form. Side chains are listed from the residue outwards. Peptide text beside a SMILES is read from it. * marks the point of attachment. ξ: configuration not given here. Ethylenediamine = C(CN[*:2])N[*:1]; dPhg = N[C@@H](C(=O)O)c1ccccc1; ξHyp = O=C(O)C1CC(O)CN1; CO = O=C([*:1])[*:2]; Bn = c1ccc(C*)cc1
Assays:
growth hormone release = experiment: inhibition of growth hormone (GH) release in rats; type: in vivo, rat; details: s.c. to anaesthetized rats
Method: Compound B is administered s.c. to anaesthetized rats. Blood is collected after decapitation 1 h after administration of the compound. The duration of action is estimated on the basis of the inhibition of basal GH secretion 6 h after drug treatment. Hormone levels are measured by RIA 1 h and 6 h after treatment. The ID50-value for the inhibition of the hormone secretion is determined graphically (log-probit) for each experiment and the resulting values are averaged logarithmically.

hsst2 = target: T1, hsst2 (Homo sapiens, UniProt P30874); experiment: competition binding assay on membranes of cells expressing hsst2
T1 construct: expressed in transfected cells
T1 sequence (P30874 whole entry): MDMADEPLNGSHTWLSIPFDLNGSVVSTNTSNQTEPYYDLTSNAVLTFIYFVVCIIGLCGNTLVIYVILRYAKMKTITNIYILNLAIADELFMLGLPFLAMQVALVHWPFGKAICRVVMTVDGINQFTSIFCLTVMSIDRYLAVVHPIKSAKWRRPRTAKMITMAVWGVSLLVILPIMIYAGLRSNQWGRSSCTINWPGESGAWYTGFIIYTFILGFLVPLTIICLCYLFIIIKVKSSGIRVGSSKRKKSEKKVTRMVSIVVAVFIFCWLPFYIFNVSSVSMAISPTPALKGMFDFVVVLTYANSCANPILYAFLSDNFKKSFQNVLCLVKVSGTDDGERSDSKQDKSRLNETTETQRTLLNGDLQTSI
Method: (§1) The experiments are carried out in triplicate.

hsst1 = hsst1 (Homo sapiens, UniProt P30872)
Sequence of hsst1 (P30872 whole entry): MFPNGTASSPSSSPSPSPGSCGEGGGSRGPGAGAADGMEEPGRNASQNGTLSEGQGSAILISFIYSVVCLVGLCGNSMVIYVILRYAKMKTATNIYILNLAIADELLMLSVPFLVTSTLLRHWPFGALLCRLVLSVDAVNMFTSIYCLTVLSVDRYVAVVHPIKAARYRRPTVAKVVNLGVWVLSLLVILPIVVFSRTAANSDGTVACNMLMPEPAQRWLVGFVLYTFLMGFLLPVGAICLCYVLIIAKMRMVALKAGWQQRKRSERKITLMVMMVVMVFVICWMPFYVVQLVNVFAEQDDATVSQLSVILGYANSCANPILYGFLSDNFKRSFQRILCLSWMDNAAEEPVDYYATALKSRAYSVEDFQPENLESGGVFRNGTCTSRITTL
Method: The binding assays may be carried out as disclosed hereunder using membranes from cell lines expressing selectively and stably hsst1, hsst2, hsst3, hsst4 or hsst5, e.g. CHO or COS cells.
Membranes prepared from hsst selective cell lines, e.g. CHO or COS cells stably expressing hsst1 or hsst2 or hsst3 or hsst4 or hsst5 are incubated in triplicate in a total volume of 300 μl at 22° C. for 30 min with increasing concentrations of [^125I-Tyr^11]-SRIF-14 in 10 mmol/l Hepes buffer (pH 7.6) containing 0.5% BSA. The incubation is terminated by rapid filtration and the filters are counted in a counter. Specific binding is total binding minus non-specific binding in the presence of 1 μmol/l somatostatin-14. The experiments are carried out in triplicate. The affinity constant (KD) and number of binding sites are calculated using appropriate statistics and graphical programs.

hsst5 = target: T2, hsst5 (Homo sapiens, UniProt P35346); experiment: competition binding assay on membranes of cells expressing hsst5; details: IC50 value in the nMolar range
T2 construct: expressed in transfected cells
T2 sequence (P35346 whole entry): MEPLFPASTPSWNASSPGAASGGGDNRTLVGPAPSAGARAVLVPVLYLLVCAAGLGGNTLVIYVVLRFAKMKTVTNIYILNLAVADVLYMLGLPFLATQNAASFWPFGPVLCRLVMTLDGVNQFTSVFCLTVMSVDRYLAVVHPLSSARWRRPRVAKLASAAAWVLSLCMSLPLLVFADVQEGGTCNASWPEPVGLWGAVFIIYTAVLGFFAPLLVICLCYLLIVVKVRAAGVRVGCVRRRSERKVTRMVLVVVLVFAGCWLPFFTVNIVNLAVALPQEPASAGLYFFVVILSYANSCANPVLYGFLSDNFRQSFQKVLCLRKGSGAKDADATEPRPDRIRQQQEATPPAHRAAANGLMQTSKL
Method: as §1

hsst3 = target: T3, hsst3 (Homo sapiens, UniProt P32745); experiment: competition binding assay on membranes of cells expressing hsst3
T3 construct: expressed in transfected cells
T3 sequence (P32745 whole entry): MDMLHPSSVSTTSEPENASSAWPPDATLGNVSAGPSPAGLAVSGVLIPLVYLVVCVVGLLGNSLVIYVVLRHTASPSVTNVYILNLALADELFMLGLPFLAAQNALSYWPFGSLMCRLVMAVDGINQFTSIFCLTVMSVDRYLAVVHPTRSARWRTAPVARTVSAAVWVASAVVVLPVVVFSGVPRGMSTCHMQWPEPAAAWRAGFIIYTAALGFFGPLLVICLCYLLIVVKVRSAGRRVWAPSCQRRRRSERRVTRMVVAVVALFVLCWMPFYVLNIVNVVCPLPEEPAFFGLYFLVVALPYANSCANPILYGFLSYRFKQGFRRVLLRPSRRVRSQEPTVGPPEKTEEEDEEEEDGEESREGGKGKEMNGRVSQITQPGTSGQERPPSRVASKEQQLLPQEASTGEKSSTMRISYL
Method: as §1

cultured pituitary cells = experiment: inhibition of GH release in vitro from cultured pituitary cells; type: cell-based; details: rat anterior pituitary cells, three hours, 3×10^−10 M growth hormone releasing factor
Method: For example, anterior pituitary glands from adult male rats are cut into small pieces and dispersed using 0.1% trypsin in 20 mM HEPES buffer. The dispersed cells are cultured for four days in MEM (Gibco) supplemented with 5% fetal calf serum, 5% horse serum, 1 mM NaHCO3, 2.5 nM dexamethasone, 2.5 mg/ml insulin and 20 U/ml Pen/Strep. On the day of the experiment the attached cells are washed two times with Krebs-Ringer medium buffered with 20 mM HEPES and supplemented with 5 mM glucose and 0.2% BSA. […] The amount of growth hormone released into the medium is measured by RIA.

[1] = storage stability of the composition; type: physicochemical; details: in the composition of the invention
Method: For example, less than 2.5% of degradation products were found after 4 weeks storage at 60° C. For example, if stored with light protection at 2° C. to 8° C., the compositions of the invention are stable over 24 months.

| Molecule | inhibition of growth hormone release in vivo (growth hormone release) | binding affinity towards hsst2 (in words) (hsst2) | binding affinity towards hsst1 (in words) (hsst1) | binding affinity towards hsst5 (in words) (hsst5) | binding affinity towards hsst3 (in words) (hsst3) | inhibition of GH release in vitro (cultured pituitary cells) | stability (in words) [1] |
| --- | --- | --- | --- | --- | --- | --- | --- |
| NCCCC[C@@H]1NC(=O)[C@@H](Cc2c[nH]c3ccccc23)NC(=O)[C@@H](c2ccccc2)NC(=O)C2CC(OC(=O)NCCN)CN2C(=O)[C@H](Cc2ccccc2)NC(=O)[C@H](Cc2ccc(OCc3ccccc3)cc2)NC1=O (stereo partly drawn) [Compound B, cyclo[{4-(NH2—C2H4—NH—CO—O—)Pro}-DPhg-DTrp-Lys-Tyr(4-Bzl)-Phe]] (cyclo([ξHyp]([CO-Ethylenediamine])[dPhg][dW]KY(Bn)F)) | inhibits growth hormone release | no significant binding affinity | no significant binding affinity | good binding affinity | low binding affinity | GH-release inhibiting activity |  |
| cyclo[{4-(NH2—C2H4—NH—CO—O—)Pro}-Phg-DTrp-Lys-Tyr(4-Bzl)-Phe] [diaspartate salt of Compound A] |  |  |  |  |  |  | Particularly good stability |

From US8299209B2, “Pharmaceutical composition comprising cyclic somatostatin analogues” (Novartis AG, priority 2003, dated 2012)
